Here are results for 2 molecules from publication PMC10808130, “Mobilization of cholesterol induces the transition from quiescence to growth in Caenorhabditis elegans through steroid hormone and mTOR signaling” (Communications Biology, 2024).

Test [1] addresses T1, SCL-12 (Caenorhabditis elegans, UniProt Q9N5N3).
T1 sequence (Q9N5N3 17-208): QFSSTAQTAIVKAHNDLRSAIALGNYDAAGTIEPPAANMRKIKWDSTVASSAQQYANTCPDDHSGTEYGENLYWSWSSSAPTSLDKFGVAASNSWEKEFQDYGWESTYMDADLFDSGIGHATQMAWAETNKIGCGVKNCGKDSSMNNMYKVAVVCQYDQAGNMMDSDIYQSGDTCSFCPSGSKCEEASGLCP
Conditions: 20 mM Tris pH 7.5, 30 mM NaCl, 0.05% Triton X-100, room temperature; 0-100 nM ligand; labelled compound.

Test [2] has as its target T1, SCL-12. Kind of test: competition with TopFluor cholesterol fluorescence, protein captured on Q-Sepharose beads. It counts as binding. Also noted: C-terminal polyhistidine tag; expressed in Sf9 insect cells (baculovirus). As to conditions: 20 mM Tris pH 7.5, 30 mM NaCl, 0.05% Triton X-100, room temperature; pre-incubated with 50 or 100 nM cholesterol; competitive.

For `CC1=CC(C)=[N+]2C1=C(CC[C@@H](C)[C@H]1CC[C@H]3[C@@H]4CC=C5C[C@@H](O)CC[C@]5(C)[C@H]4CC[C@]13C)c1c(C)cc(C)n1[B-]2(F)F` [TopFluor cholesterol], in test [1], the “direct fluorescence binding, protein captured on Q-Sepharose beads” value was “Binding of TopFluor cholesterol to SCL-12 is concentration-dependent”.
For `CC(C)CCC[C@@H](C)[C@H]1CC[C@H]2[C@@H]3CC=C4C[C@@H](O)CC[C@]4(C)[C@H]3CC[C@]12C` [cholesterol], in test [2], the “competition with TopFluor cholesterol fluorescence, protein captured on Q-Sephar” value is “SCL-12 was pre-incubated with unmodified cholesterol, which decreased the binding of TopFluor cholesterol significantly”.
